Where only a bound is given, the exact number is not on record here.

The results in this text go back to patent US20210369853A1, “TARGETED PROTEASE DEGRADATION PLATFORM” (EUBULUS BIOTHERAPEUTICS INC., priority 2018, published 2021).

In the first test the test system is Human Monocytic Leukemia MV4-11. The test can be described thus: Cell proliferation experiment (Alarm blue, 72 h, EC50). The class given is cell-based. The following applies: Homo sapiens, MV4-11, MV4;11 cells. As for the experimental part:
(2.1) Cell Proliferation Experiment:
Reagents: RPMI-1640 medium, McCoy's 5A medium, IMDM medium, MEM medium, L-15 medium, fetal bovine serum, Penicillin-Streptomycin double antibody, trypsin, etc., 2-mercaptoethanol, NEAA, pyruvate, etc.
The cells were cultured in conventional ways, and the cells should be passed at least for at least 2 generations before plating. Cells at the logarithmic growth phase are collected, prepared into single cell suspensions and counted. The concentration of cells was adjusted to the desired concentration, and cells were inoculated into a 96-well cell culture plate at 100 μl per well. 100 μL of complete medium of the test compound were added to each well, set up 2 duplicates for each concentration, and diluted with a 5-fold gradient, and continue to culture for 72 h. All cells were subjected to EC50 test for corresponding samples.
The fluorescence intensity of each well was detected using the Alarm blue method, and EC50 was calculated.
EC50 was calculated according to the following formula:
Y=Max+(Min−Max)/[1+(X/EC50)×Slope]
wherein Min, Max and Slope represent the minimum, maximum and slope respectively.
In turn, `CC[C@@H]1C(=O)N(C)c2cnc(Nc3ccc(C(=O)NCc4cn(CCNCC(=O)Nc5cccc6c5CN(C5CCC(=O)NC5=O)C6=O)nn4)cc3OC)nc2N1Cc1ccc(Br)cc1` (stereo partly drawn) [UB-180692] had an EC50 of 100 to 1000 nM.
The same measure, in the same setting: the same measure for `CC[C@@H]1C(=O)N(C)c2cnc(Nc3ccc(C(=O)NC4CCN(CCNCCCCC(=O)Nc5cccc6c5CN(C5CCC(=O)NC5=O)C6=O)C4)cc3OC)nc2N1C1CCCC1` (stereo partly drawn) [UB-180693]: 10 to 100 nM; for `CC[C@@H]1C(=O)N(C)c2cnc(Nc3ccc(C(=O)NCCNCC(=O)Nc4cccc5c4CN(C4CCC(=O)NC4=O)C5=O)cc3OC)nc2N1C1CCCC1` (stereo partly drawn) [UB-180694]: 100 to 1000 nM; for `CC[C@@H]1C(=O)N(C)c2cnc(Nc3ccc(C(=O)NCCNCC(=O)Nc4cccc5c4CN(C4CCC(=O)NC4=O)C5=O)cc3OC)nc2N1Cc1ccc(Cl)s1` (stereo partly drawn) [UB-180695]: 10 to 100 nM.
The same measure, in the same setting: the same measure for `CC[C@@H]1C(=O)N(C)c2cnc(Nc3ccc(C(=O)NCCOCCNCCC(=O)Nc4cccc5c4CN(C4CCC(=O)NC4=O)C5=O)cc3OC)nc2N1C1CCCC1` (stereo partly drawn) [UB-180696]: 10 to 100 nM.
Same read-out and setting: the result for `COc1cc(C(=O)NCCOCCNCCC(=O)Nc2cccc3c2CN(C2CCC(=O)NC2=O)C3=O)ccc1Nc1ncc2c(n1)N(C(C)C)[C@H](C)C(=O)N2C` (stereo partly drawn) [UB-180697] reads 100 to 1000 nM.
`CC[C@@H]1C(=O)N(C)c2cnc(Nc3ccc(C(=O)NCCCNCCOCC(=O)Nc4cccc5c4CN(C4CCC(=O)NC4=O)C5=O)cc3OC)nc2N1C1CCCC1` (stereo partly drawn) [UB-180698] displayed an EC50 of 10 to 100 nM.
Same read-out and setting: the same measure for `CC[C@@H]1c2c(C#N)ncn2-c2cnc(Nc3ccc(C(=O)NCCOCCOCCOCCNCCC(=O)Nc4cccc5c4CN(C4CCC(=O)NC4=O)C5=O)cc3OC)nc2N1C1CCCC1` (stereo partly drawn) [UB-180700]: 100 to 1000 nM; for `COc1cc(C(=O)NCCOCCOCCOCCNCCC(=O)Nc2cccc3c2CN(C2CCC(=O)NC2=O)C3=O)ccc1Nc1ncc2c(n1)N(C(C)C)[C@H](C)C(=O)N2C` (stereo partly drawn) [UB-180702]: 10 to 100 nM; for `CC[C@@H]1C(=O)N(C)c2cnc(Nc3ccc(C(=O)NCCOCCNCC(=O)Nc4cccc5c4CN(C4CCC(=O)NC4=O)C5=O)cc3OC)nc2N1C1CCCC1` (stereo partly drawn) [UB-180705]: 10 to 100 nM.
On the same count and under the same terms, the same measure for `CC[C@@H]1CN(C)c2cnc(Nc3ccc(C(=O)NCCOCCNCCC(=O)Nc4cccc5c4CN(C4CCC(=O)NC4=O)C5=O)cc3OC)nc2N1C(C)C` (stereo partly drawn) [UB-180706]: 100 to 1000 nM.
Still for that read-out and setting: the same measure for `CC[C@@H]1C(=O)N(C)c2cnc(Nc3ccc(C(=O)NCCCNCCN(C)CC(=O)Nc4cccc5c4CN(C4CCC(=O)NC4=O)C5=O)cc3OC)nc2N1C1CCCC1` (stereo partly drawn) [UB-180708]: 10 to 100 nM.
For `CC[C@@H]1C(=O)N(C)c2cnc(Nc3ccc(C(=O)NCCOCCOCCOCCN(CCC(=O)Nc4cccc5c4CN(C4CCC(=O)NC4=O)C5=O)C(=O)OCc4ccc(NC(=O)[C@H](CCCNC(N)=O)NC(=O)[C@@H](NC(=O)CCCCCN5C(=O)C=CC5=O)C(C)C)cc4)cc3OC)nc2N1C1CCCC1` (stereo partly drawn) [UB-180709], the EC50 fell in the range of 100 to 1000 nM.
For `CC[C@@H]1C(=O)N(C)c2cnc(Nc3ccc(C(=O)NCCOCCOCCOCCNCCC(=O)Nc4cccc5c4CN(C4CCC(=O)NC4=O)C5=O)cc3OC)nc2N1C(C)C` (stereo partly drawn) [UB-180710], the EC50 is 10 to 100 nM.
Same read-out and setting: the result for `CC[C@@H]1C(=O)N(C)c2cnc(Nc3ccc(C(=O)NC4CCN(CCNCCOCC(=O)Nc5cccc6c5CN(C5CCC(=O)NC5=O)C6=O)CC4)cc3OC)nc2N1C(C)C` (stereo partly drawn) [UB-180712] reads 10 to 100 nM; that for `CC[C@@H]1C(=O)N(C)c2cnc(Nc3ccc(C(=O)NC4CCN(CCOCCNCC(=O)Nc5cccc6c5CN(C5CCC(=O)NC5=O)C6=O)C4)cc3OC)nc2N1C1CCCC1` (stereo partly drawn) [UB-180713], 10 to 100 nM.
As for `CC[C@@H]1C(=O)N(C)c2cnc(Nc3ccc(C(=O)NCc4cn(CCNCCCC(=O)Nc5cccc6c5CN(C5CCC(=O)NC5=O)C6=O)nn4)cc3OC)nc2N1Cc1ccc(Cl)s1` (stereo partly drawn) [UB-180715], the EC50 lay in the range of 10 to 100 nM.
On the same count and under the same terms, the same measure for `CC[C@@H]1C(=O)N(C)c2cnc(Nc3ccc(C(=O)NCc4cn(CCN(C)CCCC(=O)Nc5cccc6c5CN(C5CCC(=O)NC5=O)C6=O)nn4)cc3OC)nc2N1C1CCCC1` (stereo partly drawn) [UB-180716]: less than 10 nM; for `CC[C@@H]1c2c(C#N)ncn2-c2cnc(Nc3ccc(C(=O)NCc4cn(CCNCCC(=O)Nc5cccc6c5CN(C5CCC(=O)NC5=O)C6=O)nn4)cc3OC)nc2N1C1CCCC1` (stereo partly drawn) [UB-180723]: 100 to 1000 nM; for `O=C1CCC(N2Cc3c(NC(=O)CCNCCn4cc(CNC(=O)c5ccc(Nc6ncc7c(n6)-c6ccc(Cl)cc6C(c6c(F)cccc6F)=NC7)cc5)nn4)cccc3C2=O)C(=O)N1` (stereo not drawn) [UB-180726]: 100 to 1000 nM.
In turn, `O=C1CCC(N2Cc3c(NC(=O)CCNCCOCCOCCOCCNC(=O)c4ccc(Nc5ncc6c(n5)-c5ccc(Cl)cc5C(c5c(F)cccc5F)=NC6)cc4)cccc3C2=O)C(=O)N1` (stereo not drawn) [UB-180728] displayed an EC50 of 100 to 1000 nM.
Same read-out and setting: the result for `O=C1CCC(N2Cc3c(NC(=O)CCNCCn4cc(CNC(=O)[C@]5(Cc6cccc(Nc7nccs7)n6)CC[C@@H](Oc6cccc(Cl)c6F)CC5)nn4)cccc3C2=O)C(=O)N1` (stereo partly drawn) [UB-180729] reads 100 to 1000 nM; that for `O=C1CCC(N2Cc3c(NC(=O)CCNCCOCCOCCOCCNC(=O)[C@]4(Cc5cccc(Nc6nccs6)n5)CC[C@@H](Oc5cccc(Cl)c5F)CC4)cccc3C2=O)C(=O)N1` (stereo partly drawn) [UB-180731], 100 to 1000 nM.
Regarding `O=C1CCC(N2Cc3c(NC(=O)COCCNCCn4cc(CNC(=O)c5ccc(Nc6ncc7c(n6)-c6ccc(Cl)cc6C(c6c(F)cccc6F)=NC7)cc5)nn4)cccc3C2=O)C(=O)N1` (stereo not drawn) [UB-180732], the EC50 was in the range of 100 to 1000 nM.
`O=C1CCC(N2Cc3c(NC(=O)CNCCOCCN4CCC(NC(=O)c5ccc(Nc6ncc7c(n6)-c6ccc(Cl)cc6C(c6c(F)cccc6F)=NC7)cc5)CC4)cccc3C2=O)C(=O)N1` (stereo not drawn) [UB-180735]: the EC50 lay within 100 to 1000 nM.
Still for that read-out and setting: the same measure for `O=C1CCC(N2Cc3c(NC(=O)CNCCOCCN4CCC(NC(=O)[C@]5(Cc6cccc(Nc7nccs7)n6)CC[C@@H](Oc6cccc(Cl)c6F)CC5)CC4)cccc3C2=O)C(=O)N1` (stereo partly drawn) [UB-180736]: 100 to 1000 nM.
With `O=C1CCC(N2Cc3c(NC(=O)COCCNCCN4CCC(NC(=O)c5ccc(Nc6ncc7c(n6)-c6ccc(Cl)cc6C(c6c(F)cccc6F)=NC7)cc5)CC4)cccc3C2=O)C(=O)N1` (stereo not drawn) [UB-180740], the EC50 fell in the range of 100 to 1000 nM.
Still for that read-out and setting: the result for `O=C1CCC(N2Cc3c(NC(=O)COCCNCCN4CCC(NC(=O)[C@]5(Cc6cccc(Nc7nccs7)n6)CC[C@@H](Oc6cccc(Cl)c6F)CC5)CC4)cccc3C2=O)C(=O)N1` (stereo partly drawn) [UB-180741] reads greater than 1000 nM; that for `O=C1CCC(N2Cc3c(NC(=O)CNCCOCCn4cc(CNC(=O)[C@]5(Cc6cccc(Nc7nccs7)n6)CC[C@@H](Oc6cccc(Cl)c6F)CC5)nn4)cccc3C2=O)C(=O)N1` (stereo partly drawn) [UB-180742], 100 to 1000 nM; that for `O=C1CCC(N2Cc3c(NC(=O)CNCCOCCn4cc(CNC(=O)c5ccc(Nc6ncc7c(n6)-c6ccc(Cl)cc6C(c6c(F)cccc6F)=NC7)cc5)nn4)cccc3C2=O)C(=O)N1` (stereo not drawn) [UB-180743], 100 to 1000 nM.
Still for that read-out and setting: the same measure for `O=C1CCC(N2Cc3c(NC(=O)COCCNCCn4cc(CNC(=O)[C@]5(Cc6cccc(Nc7nccs7)n6)CC[C@@H](Oc6cccc(Cl)c6F)CC5)nn4)cccc3C2=O)C(=O)N1` (stereo partly drawn) [UB-180744]: 100 to 1000 nM; for `CC[C@@H]1C(=O)N(C)c2cnc(Nc3ccc(C(=O)NC4CCN(CCOCCNCC(=O)Nc5cccc6c5CN(C5CCC(=O)NC5=O)C6=O)CC4)cc3OC)nc2N1Cc1ccc(C)s1` (stereo partly drawn) [UB-180746]: 10 to 100 nM.
Still for that read-out and setting: the result for `O=C1CCC(N2Cc3c(NC(=O)CCNCCn4ncc(CNC(=O)c5ccc(Nc6ncc7c(n6)-c6ccc(Cl)cc6C(c6c(F)cccc6F)=NC7)cc5)n4)cccc3C2=O)C(=O)N1` (stereo not drawn) [UB-180761] reads greater than 1000 nM; that for `CC[C@@H]1C(=O)N(C)c2cnc(Nc3ccc(C(=O)NCc4cn(CCNCCOCC(=O)Nc5cccc6c5CN(C5CCC(=O)NC5=O)C6=O)nn4)cc3OC)nc2N1Cc1cc(Cl)cs1` (stereo partly drawn) [UB-180763], 10 to 100 nM; that for `CC[C@@H]1C(=O)N(C)c2cnc(Nc3ccc(C(=O)NCc4cn(CCNCCOCC(=O)Nc5cccc6c5CN(C5CCC(=O)NC5=O)C6=O)nn4)cc3OC)nc2N1Cc1ccc(C)s1` (stereo partly drawn) [UB-180764], less than 10 nM.
Turning to `CC[C@@H]1C(=O)N(C)c2cnc(Nc3ccc(C(=O)NCc4cn(CCNCCOCC(=O)Nc5cccc6c5CN(C5CCC(=O)NC5=O)C6=O)nn4)cc3OC)nc2N1Cc1ccc(C#N)s1` (stereo partly drawn) [UB-180765], the EC50 lay within 10 to 100 nM.
Still for that read-out and setting: the same measure for `CC[C@@H]1C(=O)N(C)c2cnc(Nc3ccc(C(=O)NC4CCN(CCOCCNCC(=O)Nc5cccc6c5CN(C5CCC(=O)NC5=O)C6=O)CC4)cc3OC)nc2N1Cc1cc(Cl)cs1` (stereo partly drawn) [UB-180767]: 10 to 100 nM.

Staying with this test, now noted: MV4;11 cells.
Compound `O=C1CCC(N2Cc3c(NC(=O)CCNCCOCCn4cc(CNC(=O)c5ccc(Nc6ncc7c(n6)-c6ccc(Cl)cc6C(c6c(F)cccc6F)=NC7)cc5)nn4)cccc3C2=O)C(=O)N1` (stereo not drawn) [UB-180738] registered an EC50 of 100 to 1000 nM.
On the same count and under the same terms, the result for `O=C1CCC(N2Cc3c(NC(=O)CCNCCOCCn4cc(CNC(=O)[C@]5(Cc6cccc(Nc7nccs7)n6)CC[C@@H](Oc6cccc(Cl)c6F)CC5)nn4)cccc3C2=O)C(=O)N1` (stereo partly drawn) [UB-180739] reads greater than 1000 nM; that for `CC[C@@H]1C(=O)N(C)c2cnc(Nc3ccc(C(=O)NC4CCN(CCOCCNCC(=O)Nc5cccc6c5CN(C5CCC(=O)NC5=O)C6=O)CC4)cc3OC)nc2N1Cc1ccc(C)s1` (stereo partly drawn) [UB-180747], 10 to 100 nM.
On the same count and under the same terms, the result for `O=C1CCC(N2Cc3c(NC(=O)CCNCCOCCn4cc(CNC(=O)c5ccc(Nc6ncc7c(n6)-c6ccc(Cl)cc6C(c6c(F)cccc6F)=NC7)cc5)nn4)cccc3C2=O)C(=O)N1` (stereo not drawn) [UB-180748] reads greater than 1000 nM; that for `O=C1CCC(N2Cc3c(NC(=O)CCNCCOCCn4cc(CNC(=O)[C@]5(Cc6cccc(Nc7nccs7)n6)CC[C@@H](Oc6cccc(Cl)c6F)CC5)nn4)cccc3C2=O)C(=O)N1` (stereo partly drawn) [UB-180749], 100 to 1000 nM.

One may read the EC50 as the concentration giving half of the maximal effect. Low values mean an effect from little substance, high ones a need for much substance.
